Measured values: patent publication US20250340574A1, “MODULATORS OF CYSTIC FIBROSIS TRANSMEMBRANE CONDUCTANCE REGULATOR” (Vertex Pharmaceuticals Incorporated, priority 2022, published 2025)

Target: T1, CFTR (F508del/MF-HBE cells) (Homo sapiens, UniProt P13569, DEL508-508)
T1 construct: human bronchial epithelial (HBE) cells derived from CF subjects heterozygous for F508del and a minimal function CFTR mutation (F508del/MF-HBE); endogenous in cells; host or cells: Primary human bronchial epithelial cells from CF subjects (F508del/MF genotype), differentiated at an air-liquid interface
T1 sequence (P13569 with tags, fused parts or gaps DEL508-508): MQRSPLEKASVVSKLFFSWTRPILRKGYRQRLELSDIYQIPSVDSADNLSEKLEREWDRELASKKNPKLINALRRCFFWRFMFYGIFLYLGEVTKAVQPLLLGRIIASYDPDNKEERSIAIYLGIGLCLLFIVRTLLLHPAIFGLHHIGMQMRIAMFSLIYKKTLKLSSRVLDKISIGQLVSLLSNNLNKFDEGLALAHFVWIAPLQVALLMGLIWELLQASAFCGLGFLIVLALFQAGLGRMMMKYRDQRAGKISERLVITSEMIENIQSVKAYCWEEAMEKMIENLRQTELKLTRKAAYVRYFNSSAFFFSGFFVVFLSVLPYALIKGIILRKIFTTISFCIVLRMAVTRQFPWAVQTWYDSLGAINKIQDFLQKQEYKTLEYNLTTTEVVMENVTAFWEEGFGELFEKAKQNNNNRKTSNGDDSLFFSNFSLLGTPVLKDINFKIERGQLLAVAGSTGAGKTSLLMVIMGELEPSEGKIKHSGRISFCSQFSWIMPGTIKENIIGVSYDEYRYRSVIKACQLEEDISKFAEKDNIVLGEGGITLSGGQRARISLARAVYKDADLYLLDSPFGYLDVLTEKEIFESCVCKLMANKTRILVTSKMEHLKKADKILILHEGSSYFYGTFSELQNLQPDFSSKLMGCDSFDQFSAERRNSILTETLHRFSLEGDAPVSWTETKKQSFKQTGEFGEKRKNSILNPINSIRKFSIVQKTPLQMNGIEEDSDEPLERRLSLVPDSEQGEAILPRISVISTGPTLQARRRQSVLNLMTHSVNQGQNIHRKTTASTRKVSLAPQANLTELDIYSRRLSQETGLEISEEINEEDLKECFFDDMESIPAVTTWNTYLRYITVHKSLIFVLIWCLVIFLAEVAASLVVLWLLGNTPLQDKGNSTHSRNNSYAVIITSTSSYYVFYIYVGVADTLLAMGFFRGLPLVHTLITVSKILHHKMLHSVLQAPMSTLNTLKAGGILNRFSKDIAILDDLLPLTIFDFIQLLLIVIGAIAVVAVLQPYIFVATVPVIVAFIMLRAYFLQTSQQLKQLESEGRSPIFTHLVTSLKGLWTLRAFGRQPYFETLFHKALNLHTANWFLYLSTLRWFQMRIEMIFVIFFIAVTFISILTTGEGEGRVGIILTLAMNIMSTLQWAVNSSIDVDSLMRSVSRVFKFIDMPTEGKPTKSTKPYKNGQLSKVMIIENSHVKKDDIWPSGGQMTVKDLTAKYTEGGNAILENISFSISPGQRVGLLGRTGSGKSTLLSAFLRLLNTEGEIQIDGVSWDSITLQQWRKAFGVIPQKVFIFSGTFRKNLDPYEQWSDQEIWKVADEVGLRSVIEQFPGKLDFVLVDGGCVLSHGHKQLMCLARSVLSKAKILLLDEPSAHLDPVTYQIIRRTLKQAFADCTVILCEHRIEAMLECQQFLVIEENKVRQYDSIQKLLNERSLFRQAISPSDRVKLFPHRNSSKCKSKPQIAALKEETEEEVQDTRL
Assay: Ussing chamber assay of CFTR-mediated short-circuit currents, Assay D (single concentration of 1 μM)
Assay type: cell-based
Conditions: with 44 nM potentiator and 18 μM Tezacaftor, 18-24 hours, 20% human serum
Protocol: Ussing chamber experiments were performed using human bronchial epithelial (HBE) cells derived from CF subjects heterozygous for F508del and a minimal function CFTR mutation (F508del/MF-HBE) and cultured as previously described (Neuberger T, Burton B, Clark H, Van Goor F Methods Mol Biol 2011:741:39-54). After four days the apical media was removed, and the cells were grown at an air liquid interface for >14 days prior to use.
To isolate the CFTR-mediated short-circuit (ISC) current, F508del/MF-HBE grown on Costar® Snapwell™ cell culture inserts were mounted in an Ussing chamber and the transepithelial ISC was measured under voltage-clamp recording conditions (Vhold=0 mV) at 37° C. The basolateral solution contained (in mM) 145 NaCl, 0.83 K2HPO4, 3.3 KH2PO4, 1.2 MgCl2, 1.2 CaCl2, 10 Glucose, 10 HEPES (pH adjusted to 7.4 with NaOH) and the apical solution contained (in mM) 145 NaGluconate, 1.2 MgCl2, 1.2 CaCl2, 10 glucose, 10 HEPES (pH adjusted to 7.4 with NaOH) and 30 μM amiloride to block the epithelial sodium channel. Forskolin (20 μM) was added to the apical surface to activate CFTR, followed by apical addition of a CFTR inhibitor cocktail consisting of BPO, GlyH-101, and CFTR inhibitor 172 (each at 20 μM final assay concentration) to specifically isolate CFTR currents. The CFTR-mediated ISC (μA/cm^2) for each condition was determined from the peak forskolin response to the steady-state current following inhibition.
The activity of the CFTR corrector compounds on the CFTR-mediated ISC was determined in Ussing chamber studies as described above. The F508del/MF-HBE cell cultures were either incubated with the corrector compounds at a range of concentrations in combination with 33 nM (6R,12R)-17-amino-12-methyl-6,15-bis(trifluoromethyl)-13,19-dioxa-3,4,18-triazatricyclo[12.3.1.12,5]nonadeca-1(18),2,4,14,16-pentaen-6-ol and 18 μM Tezacaftor or were incubated with the corrector compounds at a single fixed concentration of 1 μM in combination with 44 nM (6R,12R)-17-amino-12-methyl-6,15-bis(trifluoromethyl)-13,19-dioxa-3,4,18-triazatricyclo[12.3.1.12,5]nonadeca-1(18),2,4,14,16-pentaen-6-ol and 18 μM Tezacaftor for 18-24 hours at 37° C. and in the presence of 20% human serum. The concentration of corrector compounds with 44 nM or 33 nM (6R,12R)-17-amino-12-methyl-6,15-bis(trifluoromethyl)-13,19-dioxa-3,4,18-triazatricyclo[12.3.1.12,5]nonadeca-1(18),2,4,14,16-pentaen-6-ol and 18 μM Tezacaftor during the 18-24 hours incubations was kept constant throughout the Ussing chamber measurement of the CFTR-mediated ISC to ensure compounds were present throughout the entire experiment. The efficacy and potency of the putative F508del correctors was compared to that of the known Vertex corrector, (14S)-8-[3-(2-{Dispiro[2.0.2.1]heptan-7-yl}ethoxy)-1H-pyrazol-1-yl]-12,12-dimethyl-2λ^6-thia-3,9,11,18,23-pentaazatetracyclo[17.3.1.111,14.05,10]tetracosa-1(22),5,7,9,19(23),20-hexaene-2,2,4-trione, in combination with 18 μM Tezacaftor and 1 μM Ivacaftor.
• Assay A: 0.1 μM to 25 μM, 6 concentrations • Assay B: 0.00001 μM to 25 μM, 12 concentrations • Assay C: 0.026 μM to 25 μM, 6 concentrations • Assay D: Activity at single concentration of 1 μM

| D activity at 1 μM (%) | SMILES |
| --- | --- |
| +++ (+++ is >60%) | Cc1cccc(C)c1-c1cc2nc(n1)NS(=O)(=O)c1cccc(c1)C(=O)N(Cc1cn3cccc(C(C)C)c3n1)[C@H](CC(C)(C)C)CO2 [III-5, (11R)-6-(2,6-dimethylphenyl)-11-(2,2-dimethylpropyl)-12-[(8-isopropylimidazo[1,2-a]pyridin-2-yl)methyl]-2,2-dioxo-9-oxa-2λ^6-thia-3,5,12,19-tetrazatricyclo[12.3.1.14,8]nonadeca-1(18),4(19),5,7,14,16-hexaen-13-one] |
| +++ (+++ is >60%) | Cc1cccc(C)c1-c1cc2nc(n1)NS(=O)(=O)c1cccc(c1)C(=O)N(Cc1nn(C(C)C)c3ccccc13)[C@H](CC(C)(C)C)CO2 [III-17] |

More lines, now with the values behind:

| SMILES | D activity at 1 μM (%) |
| --- | --- |
| Cc1cccc(C)c1-c1cc2nc(n1)NS(=O)(=O)c1cccc(c1)C(=O)N(Cc1cnc3cc(C(C)C)n(C)c3n1)[C@H](COC1CCCC1)CO2 [Compound I-121, (11R)-11-(Cyclopentoxymethyl)-6-(2,6-dimethylphenyl)-12-[(6-isopropyl-5-methyl-pyrrolo[2,3-b]pyrazin-3-yl)methyl]-2,2-dioxo-9-oxa-2λ^6-thia-3,5,12,19-tetrazatricyclo[12.3.1.14,8]nonadeca-1(18),4(19),5,7,14,16-hexaen-13-one] | +++ (+++ is >60%) |
| Cc1cccc(C)c1-c1cc2nc(n1)NS(=O)(=O)c1cccc(c1)C(=O)N(Cc1cnc3oc(C(C)C)cc3n1)[C@H](CC(C)(C)C)CC2 [Compound I-173] | +++ (+++ is >60%) |
| Cc1cccc(C)c1-c1nc2nc(c1C)OC[C@@H](CC1(C)CC1)N(Cc1cnc3cc(C4(C)CC4)n(C)c3n1)C(=O)c1cccc(c1)S(=O)(=O)N2 [Compound I-230] | +++ (+++ is >60%) |
| Cc1cccc(C)c1-c1cc2nc(n1)NS(=O)(=O)c1cccc(c1)C(=O)N(Cc1cnc3oc(C(C)C)c(Cl)c3n1)[C@H](COC(C)C)CO2 [Compound I-162] | +++ (+++ is >60%) |
| Cc1cccc(C)c1-c1cc2nc(n1)NS(=O)(=O)c1cccc(c1)C(=O)N(Cc1nc3c(cc1F)nc(C(C)C)n3C)[C@H](COC(C)C)CO2 [Compound I-68] | +++ (+++ is >60%) |
| Cc1cccc(C)c1-c1cc2nc(n1)NS(=O)(=O)c1cccc(c1)C(=O)N(Cc1cnc3cc(C4CC4)n(C)c3n1)[C@H](CC(C)(C)C)CO2 [Compound I-150] | +++ (+++ is >60%) |
| Cc1cccc(C(C)C)c1-c1nc2nc(c1C)OC[C@@H](CC(C)(C)C)N(Cc1cnc3oc(C(C)C)cc3n1)C(=O)c1cccc(c1)S(=O)(=O)N2 (atropisomer, axis not shown) [Compound I-136] | +++ (+++ is >60%) |
| Cc1cccc(C)c1-c1nc2nc(c1C)OC[C@@H](CC(C)(C)C)N(Cc1cnc3cc(C4(C)CC4)n(C)c3n1)C(=O)c1cccc(c1)S(=O)(=O)N2 [Compound I-229] | +++ (+++ is >60%) |
| Cc1cccc(C)c1-c1nc2nc(c1C)OC[C@@H](C[C@H]1CCCCO1)N(Cc1cnc3oc(C4CC4)cc3n1)C(=O)c1cccc(c1)S(=O)(=O)N2 [Compound I-192] | +++ (+++ is >60%) |
| COCCn1c(C(C)C)cc2ncc(CN3C(=O)c4cccc(c4)S(=O)(=O)Nc4nc(cc(-c5c(C)cccc5C)n4)OC[C@H]3CC(C)(C)C)nc21 [Compound I-117, (11R)-6-(2,6-dimethylphenyl)-11-(2,2-dimethylpropyl)-12-[[6-isopropyl-5-(2-methoxyethyl)pyrrolo[2,3-b]pyrazin-3-yl]methyl]-2,2-dioxo-9-oxa-2λ^6-thia-3,5,12,19-tetrazatricyclo[12.3.1.14,8]nonadeca-1(18),4(19),5,7,14,16-hexaen-13-one] | +++ (+++ is >60%) |
| Cc1cccc(OC(C)C)c1-c1nc2nc(c1C)OC[C@@H](CC(C)(C)C)N(Cc1cnc3cc(C(C)(C)C)n(C)c3n1)C(=O)c1cccc(c1)S(=O)(=O)N2 (atropisomer, axis not shown) [Compound I-261] | +++ (+++ is >60%) |
| Cc1cccc(C)c1-c1cc2nc(n1)NS(=O)(=O)c1cccc(c1)C(=O)N(Cc1cnc3nc(C(C)C)n(C)c3n1)[C@H](CC(C)(C)C)CO2 [Compound I-73] | +++ (+++ is >60%) |
| Cc1cccc(C)c1-c1cc2nc(n1)NS(=O)(=O)c1cccc(c1)C(=O)N(Cc1cnc3oc(C(C)C)cc3n1)[C@H](COC1CCCC1)CO2 [Compound I-120] | +++ (+++ is >60%) |
| Cc1cccc(C)c1-c1cc2nc(n1)NS(=O)(=O)c1cccc(c1)C(=O)N(Cc1cnc3cc(C(C)C)n(C)c3n1)[C@H](CC1(F)CCC1)CO2 [Compound I-125] | +++ (+++ is >60%) |
| Cc1cccc(C)c1-c1cc2nc(n1)NS(=O)(=O)c1cccc(c1)C(=O)N(Cc1cnc3cn(C(C)C)nc3n1)[C@@H](CCC1(C)CC1)CO2 [Compound I-129] | +++ (+++ is >60%) |
| Cc1cccc(C)c1-c1cc2nc(n1)NS(=O)(=O)c1cccc(c1)C(=O)N(Cc1cnc3oc(C(C)(C)C)cc3n1)[C@H](CC1CC1)CO2 [Compound I-219] | +++ (+++ is >60%) |
| Cc1cccc(C)c1-c1cc2nc(n1)NS(=O)(=O)c1cccc(c1)C(=O)N(Cc1nc3cc(C(C)(C)C)oc3cc1F)[C@H](CC1(C)CC1)CO2 [Compound I-243] | +++ (+++ is >60%) |
| Cc1cccc(C)c1-c1nc2nc(c1C)OC[C@@H](COC(C)C)N(Cc1cnc3oc(C4CC4)cc3n1)C(=O)c1cccc(c1)S(=O)(=O)N2 [Compound I-181] | +++ (+++ is >60%) |
| Cc1cccc(CC2CCCCC2)c1-c1nc2nc(c1C)OC[C@@H](CC(C)(C)C)N(Cc1cnc3oc(C4CC4)cc3n1)C(=O)c1cccc(c1)S(=O)(=O)N2 [Compound I-224] | +++ (+++ is >60%) |

Same assay, conditions: with 44 nM potentiator and 18 μM Tezacaftor, 20% human serum

| D act. at 1 μM (%) | SMILES |
| --- | --- |
| +++ (+++ is >60%) | CCc1c2nc(nc1-c1c(C)cccc1C)NS(=O)(=O)c1cccc(c1)C(=O)N(Cc1cnc3oc(C(C)(C)C)cc3n1)[C@H](COC(C)C)CO2 [IV-3] |
| ++ (++ is 30-60%) | Cc1cccc(C)c1-c1cc2nc(n1)NS(=O)(=O)c1cccc(c1)C(=O)N(Cc1cnc3cc(C4(C)CC4)n(C)c3n1)[C@@H](C(C1CCC1)C1CCC1)CO2 (single isomer, unassigned) [IV-21, 11-[di(cyclobutyl)methyl]-6-(2,6-dimethylphenyl)-12-[[5-methyl-6-(1-methylcyclopropyl)pyrrolo[2,3-b]pyrazin-3-yl]methyl]-2,2-dioxo-9-oxa-2λ^6-thia-3,5,12,19-tetrazatricyclo[12.3.1.14,8]nonadeca-1(18),4(19),5,7,14,16-hexaen-13-one] |
| +++ (+++ is >60%) | Cc1cccc(C)c1-c1cc2nc(n1)NS(=O)(=O)c1cccc(c1)C(=O)N(Cc1cnc3oc(C(C)(C)C)cc3n1)[C@H](CC1CCC1)CO2 [IV-7] |
| +++ (+++ is >60%) | Cc1cccc(C)c1-c1cc2nc(n1)NS(=O)(=O)c1cccc(c1)C(=O)N(Cc1cnc3oc(C(C)(C)C)cc3n1)[C@H](CC1CCCC1)CO2 [IV-8] |
| +++ (+++ is >60%) | CC(C)=Cc1cc2nc(CN3C(=O)c4cccc(c4)S(=O)(=O)Nc4nc(cc(-c5c(C)cccc5C)n4)OC[C@H]3CC3(C)CC3)cnc2o1 [IV-17, (11R)-6-(2,6-dimethylphenyl)-11-[(1-methylcyclopropyl)methyl]-12-[[6-(2-methylprop-1-enyl)furo[2,3-b]pyrazin-2-yl]methyl]-2,2-dioxo-9-oxa-2λ^6-thia-3,5,12,19-tetrazatricyclo[12.3.1.14,8]nonadeca-1(18),4(19),5,7,14,16-hexaen-13-one] |
| +++ (+++ is >60%) | Cc1cccc(C)c1-c1cc2nc(n1)NS(=O)(=O)c1cccc(c1)C(=O)N(Cc1cnc3oc(C(C)(C)C)cc3n1)[C@@H](CCC1(C)CC1)CO2 [IV-10] |
